Format in all cases: cell-based
One test relates to HEC-108 cells. The test is described as follows: CellTiter-Glo viability/proliferation assay, growth of HEC-108 TP53 WT endometrial cancer cells. As to the method: (§1) The effect of MDM2 inhibitor compound of Formula (I) on growth of a p53 wild-type (TP53 WT) endometrial cancer cell line was assessed in HEC-151 cells, HEC-265 cells, and HEC-108 cells as described below.
(§2) Test and Control Article Preparation: A stock solution for Formula (I) was created by dissolving the compound in 100% DMSO to a concentration of 10 mM which was stored at −20 °C. Working solutions ranging from 0.04 μM to 10 μM to generate a 10-point dilution series were prepared by diluting the stock solution in culture media specific to each cell line (cell line assay media). Final concentrations of DMSO were kept constant at 0.1% to maintain cell viability. […]
(§3) Treatment of Cells for Proliferation Assay: Cells were counted (Countess III automated cell counter, Thermo Fisher Scientific) using a cell viability imaging kit (Thermo Fisher Scientific; cat #R37609). […]
(§4) On Day 0 prior treatment, and after the treatment period, the number of viable cells were measured using the CellTiter-Glo® Luminescent Cell Viability Assay (Promega) according to manufacturer instructions. The luminescence for each treatment condition was normalized to the DMSO control as a percent of control. Dose response curves were generated and EC50s and EC90s were determined based on percent of DMSO control. […]

Test [1] has as its system p53 wild-type (TP53 WT) endometrial cancer cell line. The test is described as follows: Inhibition of endometrial cancer cell growth (overall result, FIG. 1). The following applies: at clinically relevant doses; results shown in FIG. 1. As for the experimental part:
as §1, §2, §3, §4

A further test deals with HEC-265 cells. The test is described as follows: CellTiter-Glo viability/proliferation assay, growth of HEC-265 TP53 WT endometrial cancer cells. The following applies: 144 h, 6-day incubation. As for the experimental part:
as §1, §2, §3, §4

In the next test the test system is HEC-151 cells. The test is described as follows: CellTiter-Glo viability/proliferation assay, growth of HEC-151 TP53 WT endometrial cancer cells. The following applies: 144 h, 6-day incubation. As for the experimental part:
as §1, §2, §3, §4
(Cellular ATP, detected with luciferase, serves as a proxy for viable cell number.)

The mark [2] stands for this setting: read-out: Near complete growth inhibition (EC90).

For `CC(C)[C@@H](CS(=O)(=O)C(C)C)N1C(=O)[C@@](C)(CC(=O)O)C[C@H](c2cccc(Cl)c2)[C@H]1c1ccc(Cl)cc1` [Formula (I), 2-((3R,5R,6S)-5-(3-chlorophenyl)-6-(4-chlorophenyl)-1-((S)-1-(isopropylsulfonyl)-3-methylbutan-2-yl)-3-methyl-2-oxopiperidin-3-yl) acetic Acid], the “growth inhibition (200-point scale: 0 uninhibited growth, 100 cell stasis, 200 complete cell killing)” value in the test on HEC-108 cells (at 10 μM, 6-day exposure) is “only nearly reached cell stasis”. For the same molecule, in the test with HEC-108 cells (compared with HEC-151 and HEC-265, 6-day exposure), the cell killing sensitivity result was “less sensitive”. Further, the growth inhibition result in test [1] was “growth inhibition by the compound of Formula (I) at clinically relevant doses”. For the same molecule, the 50% effective concentration (EC50) (commonly the midpoint of the concentration-response curve) in the test with HEC-265 cells (percent of DMSO control) was 600 nM; with HEC-151 cells (percent of DMSO control), 400 nM. Also, the concentration for an effect of 90% (EC90) in the test with HEC-265 cells (setting [2]) and with HEC-151 cells (setting [2]) was 700 nM in each case.

For the origin of these results see patent publication US20260355170A1, “Treatment of Endometrial Cancer with MDM2 Inhibitors” (Kartos Therapeutics, Inc., priority 2023, published 2026).
